{"source": "patent US9987371B2", "about": "(priority 2013, dated 2018)", "key": {"[1]": {"test_system": "B16-F10 cells", "type": "cell-based"}, "[2]": {"test_system": "GFP in B16 GFP cells", "type": "cell-based", "conditions": "for Able to transfect?: GFP knockdown at 50 nM; for outcome of screening for GFP siRNA delivery: peptide:polynucleotide ratio between 50:1 and 200:1"}, "[3]": {"test_system": "GFP in B16 GFP cells", "type": "cell-based"}, "[4]": {"test_system": "RAW264.7 cells"}, "[5]": {"test_system": "B16-F10 cells"}, "[6]": {"conditions": "all tested doses, Hou et al., 2013; cited from earlier work"}, "[7]": {"test_system": "Rabbit red blood cells (RBC)", "assay": "RBC hemolysis", "type": "cell-based", "description": "The lytic capacity of liberated p5RHH can be quantified in vitro with red blood cell (RBC) hemolysis assays. When incubated at decreasing pH, the ability of p5RHH/siRNA nanoparticles to lyse RBC is enhanced, due to the release of free p5RHH at pH ≤5.5 (FIG. 210). These assays were performed at 4° C. to decrease the rate of auto-hemolysis observed at higher temperatures.\nRabbit red blood cells (RBC) were isolated from whole blood by centrifugation and washed in PBS 3× before storage at 4° C. Prior to hemolysis studies, RBC were washed 3× in pH appropriate HBSS and diluted 1 to 5000. RBCs in pH-specific buffer were then incubated with p5RHH/siRNA nanoparticles for 12 hours. The RBC remnants were pelleted by centrifugation and the hemoglobin content of the supernatant was measured by UV absorbance at 550 nm. Absorbance values were then normalized against maximum lysis by p5RHH only controls and presented as the average of 3 separate experiments."}, "[8]": {"test_system": "B16 GFP cells", "assay": "Alamar Blue cell viability of transfected B16 GFP cells", "type": "cell-based", "description": "Cell viability was determined 72 hours post transfection using Alamar Blue (Life technologies). Briefly, Alamar Blue was diluted 1:10 into phenol red free medium and incubated with cells for 2-4 hours. Fluorescence was measured on a fluorescent plate reader with excitation at 570 nm and emission at 585 nm (Varian Cary Eclipse, Agilent Technologies, Santa Clara, Calif.).\nB16 GFP cells were transfected with increasing concentrations of p5RHH/siRNA nanoparticles containing GFP-specific or scrambled siRNA. For comparison, B16 GFP cells were also transfected with increasing concentrations of GFP specific or scrambled siRNA using lipofectamine 2000. RNA extracted from transfected cells was analyzed using Northern blot analysis, and normalized viability of transfected B16 cells was determined (FIG. 28)."}, "[9]": {"test_system": "HUVEC cells"}, "[10]": {"test_system": "B16F10 cells", "assay": "Acridine orange staining for endosomal/lysosomal disruption", "type": "cell-based", "conditions": "100 nM siRNA, 12 hours", "description": "Endosomal disruption in living cells was observed by acridine orange staining. Cells were first loaded with acridine orange (10 μM, 15 minutes), which fluoresces red at low pH in the endosome but green at cytoplasmic pH. Endosomal disruption can be visualized by an increase in cytoplasmic green fluorescence in the presence of 100 μM chloroquine (FIG. 21F).\nB16F10 cells plated on coverslips are loaded with acridine orange at 10 μM for 15 minutes and washed for 3× in PBS before incubation in the presence of p5RHH/siRNA nanoparticles in 10% DMEM at a final siRNA concentration of 100 nM for 12 hours. Alternatively, cells were exposed to chloroquine (Sigma) at 100 μM for 15 minutes prior to imaging. Live cells were visualized by fluorescence microscopy on an Olympus BX610 (Tokyo, Japan)."}, "[11]": {"test_system": "B16F10 cells", "assay": "Confocal microscopy of cytoplasmic oligonucleotide release in B16 cells", "type": "cell-based"}, "[12]": {"conditions": "charge ratio (+/−) 6:1 (peptide/siRNA 62:1, 28:1 or 50:1 by peptide)"}, "[13]": {"conditions": "charge ratio (+/−) 12:1 (peptide/siRNA 124:1, 56:1 or 100:1 by peptide)"}, "[14]": {"conditions": "charge ratio (+/−) 24:1 (peptide/siRNA 248:1, 112:1 or 200:1 by peptide)"}}, "note": "“Also recorded” adds a separate entry of the source. Like-named read-outs stand apart in the source and are kept apart here.", "data": [{"molecule": "CCN(c1nc(N)c(C(=O)NC(=N)N)nc1Cl)C(C)C", "note": "[EIPA]", "values": [{"measurement": "effect of endocytosis inhibitor on p5RHH/siRNA nanoparticle uptake", "setting": "[1]", "result": "dramatically reduces p5RHH/siRNA uptake; also recorded: nearly abolishes nanoparticle uptake"}]}, {"molecule": "CC[C@H](C)[C@H](NC(=O)CN)C(=O)NCC(=O)N[C@@H](C)C(=O)N[C@H](C(=O)N[C@@H](CC(C)C)C(=O)N[C@@H](CCCCN)C(=O)N[C@H](C(=O)N[C@@H](CC(C)C)C(=O)N[C@H](C(=O)N[C@H](C(=O)NCC(=O)N[C@@H](CC(C)C)C(=O)N1CCC[C@H]1C(=O)N[C@@H](C)C(=O)N[C@@H](CC(C)C)C(=O)N[C@H](C(=O)N[C@@H](CO)C(=O)N[C@@H](Cc1c[nH]c2ccccc12)C(=O)N[C@H](C(=O)N[C@@H](CCCCN)C(=O)N[C@@H](CCCNC(=N)N)C(=O)N[C@@H](CCCCN)C(=O)N[C@@H](CCCNC(=N)N)C(=O)N[C@@H](CCC(N)=O)C(=O)N[C@@H](CCC(N)=O)C(N)=O)[C@@H](C)CC)[C@@H](C)CC)[C@@H](C)O)[C@@H](C)O)C(C)C)C(C)C", "note": "[Melittin, reference compound]", "values": [{"measurement": "Able to transfect?", "setting": "[2]; [12]", "result": "No"}, {"measurement": "Able to transfect?", "setting": "[2]; [13]", "result": "Toxic"}, {"measurement": "Able to transfect?", "setting": "[2]; [14]", "result": "Toxic"}, {"measurement": "outcome of screening for GFP siRNA delivery", "setting": "[2]", "result": "too toxic"}]}, {"molecule": "CO/C1=C\\C(C)=C\\[C@@H](C)[C@@H](O)[C@@H](C)C/C(C)=C/C=C/[C@H](OC)[C@@H]([C@@H](C)[C@@H](O)[C@H](C)[C@@]2(O)C[C@@H](O)[C@H](C)[C@@H](C(C)C)O2)OC1=O", "note": "[bafilomycin A1, reference compound]", "values": [{"measurement": "effect of bafilomycin A1 on p5RHH/siRNA uptake", "setting": "[1]", "result": "did not impair p5RHH/siRNA uptake; also recorded: does not inhibit uptake"}, {"measurement": "effect of bafilomycin A1 on p5RHH mediated GFP knockdown", "setting": "[2]", "result": "near complete loss of GFP knockdown; also recorded: blocks knockdown of GFP"}]}, {"molecule": "CCN(CC)CCCC(C)Nc1ccnc2cc(Cl)ccc12", "note": "(centres unmarked) [chloroquine, reference compound]", "values": [{"measurement": "effect of chloroquine on p5RHH mediated GFP knockdown", "setting": "[3]", "result": "does not improve knockdown"}]}, {"molecule": "CCCCC[C@@H](O)[C@H]1C(=O)O[C@H](C)[C@@H](O)/C=C/C=C/C=C/C=C/C=C(\\C)[C@@H](O)C[C@H](O)C[C@H](O)C[C@H](O)C[C@H](O)C[C@H](O)C[C@@H]1O", "note": "[filipin]", "values": [{"measurement": "effect of endocytosis inhibitor on p5RHH/siRNA nanoparticle uptake", "setting": "[1]", "result": "no effect; also recorded: do not inhibit"}]}, {"molecule": "CC[C@H](C)[C@H](NC(=O)[C@H](CC(C)C)NC(=O)[C@H](C)NC(=O)[C@@H]1CCCN1C(=O)[C@H](CC(C)C)NC(=O)CNC(=O)[C@@H](NC(=O)[C@@H](NC(=O)[C@H](CC(C)C)NC(=O)[C@@H](N)C(C)C)[C@@H](C)O)[C@@H](C)O)C(=O)N[C@@H](CO)C(=O)N[C@@H](Cc1c[nH]c2ccccc12)C(=O)N[C@H](C(=O)N[C@@H](CCCNC(=N)N)C(=O)N[C@@H](CCCNC(=N)N)C(=O)N[C@@H](CCCNC(=N)N)C(=O)N[C@@H](Cc1c[nH]cn1)C(=O)N[C@@H](CCCNC(=N)N)C(=O)N[C@@H](CCCNC(=N)N)C(=O)N[C@@H](Cc1c[nH]cn1)C(=O)N[C@@H](CS)C(=O)O)[C@@H](C)CC", "note": "[p5RHH]", "values": [{"measurement": "cytotoxicity in RAW264.7 cells", "setting": "[4]", "result": "without cytotoxicity"}, {"measurement": "decrease in cell viability", "setting": "[4]", "result": "~5", "unit": "%"}, {"measurement": "nonspecific cytotoxicity (B16 viability)", "setting": "[5]", "result": "no effect on B16 viability"}, {"measurement": "decreased B16-F10 viability", "setting": "[5]; mouse", "result": 60, "unit": "%"}, {"measurement": "cytotoxicity", "setting": "[6]", "result": "without significant cytotoxicity"}, {"measurement": "IC50", "setting": "[7]; free peptide, normalized to 0.1% Triton-X, read-out: IC50 of RBC lysis", "result": "200 to 400", "unit": "µM"}, {"measurement": "pH at which hemolysis / hemoglobin release is increased", "setting": "[7]; p5RHH/siRNA nanoparticles, 4° C.", "result": "≤ 5.5"}, {"measurement": "cytotoxicity at p5RHH:siRNA ratios up to 200:1", "setting": "[8]; Alamar blue, 50 nM siRNA", "result": "no sign of cytotoxicity"}, {"measurement": "decrease in cell viability", "setting": "[8]; highest concentrations tested", "result": "~3", "unit": "%"}, {"measurement": "toxicity by Alamar blue", "setting": "[8]; siRNA concentrations up to 200 nM", "result": "minimal toxicity"}, {"measurement": "cytotoxicity towards HUVEC cells", "setting": "[9]", "result": "no cytotoxicity"}]}, {"molecule": "VLKVLTTLAPALISWIRRRHRRC [p5RH-LL]", "values": [{"measurement": "Able to transfect?", "setting": "[2]; [12]", "result": "No"}, {"measurement": "Able to transfect?", "setting": "[2]; [13]", "result": "Yes"}, {"measurement": "Able to transfect?", "setting": "[2]; [14]", "result": "No"}, {"measurement": "outcome of screening for GFP siRNA delivery", "setting": "[2]", "result": "able to transfect"}]}, {"molecule": "VLTTGLPALISWIKRKRQQC [Peptide 5C]", "values": [{"measurement": "Able to transfect?", "setting": "[2]; [12]", "result": "No"}, {"measurement": "Able to transfect?", "setting": "[2]; [13]", "result": "No"}, {"measurement": "Able to transfect?", "setting": "[2]; [14]", "result": "No"}]}, {"molecule": "VLTTGLPALISWIKRKRQQRWRRRR [p5RWR]", "values": [{"measurement": "endosomal disruption (acridine orange release)", "setting": "[10]", "result": "cannot"}, {"measurement": "GFP knockdown by western blotting", "setting": "[3]", "result": "unable to induce GFP knockdown even in the presence of chloroquine"}, {"measurement": "oligonucleotide release into the cytoplasm", "setting": "[11]", "result": "do not reach the cytoplasm; also recorded: does not manifest appreciable oligonucleotide release into the cytoplasm"}, {"measurement": "Able to transfect?", "setting": "[2]; [12]", "result": "No"}, {"measurement": "Able to transfect?", "setting": "[2]; [13]", "result": "No"}, {"measurement": "Able to transfect?", "setting": "[2]; [14]", "result": "No"}, {"measurement": "siRNA transfection ability (GFP knockdown)", "setting": "[2]; flow cytometry, without / with 50 μM chloroquine", "result": "unable to initiate GFP knockdown without the aid of chloroquine; also recorded: no siRNA transfection ability"}]}, {"molecule": "VLTTGLPALISWIRRRHRRC [p5RH]", "values": [{"measurement": "Able to transfect?", "setting": "[2]; [12]", "result": "No"}, {"measurement": "Able to transfect?", "setting": "[2]; [13]", "result": "Yes"}, {"measurement": "Able to transfect?", "setting": "[2]; [14]", "result": "No"}, {"measurement": "outcome of screening for GFP siRNA delivery", "setting": "[2]", "result": "able to transfect"}]}]}
